Measurements published in patent publication US5622947A, “Benzoheterocyclic compounds and vasopressin antagonist and oxytocin antagonist compositions containing a benzoheterocyclic compound” (Otsuka Pharmaceutical Co., Ltd., priority 1992, dated 1997).
Where a name gives a salt, the structure may show the parent alone.

Experiments:
[1] = molecular target: T1, V1 Recepter (rat liver plasma membrane preparations) (Rattus norvegicus, UniProt P30560); experiment: V1 Recepter binding assay; conditions: [3H]-Arg-vasopressin 2×10^-10 M, 37° C., 10 minutes, pH 8.0, rat liver plasma membrane
T1 construct: rat liver plasma membrane preparations; from tissue; host or cells: rat liver plasma membranes
Experimental: Test-1: V1 Recepter binding assay
By using rat liver plasma membrane preparations prepared according to Ichiraha's method [by Akira Ichihara: J. Bio. Chem., 258, 9283 (1983)], the plasma membrane (50,000 dpm, 2×10^-10 M) of [^3 H]-Arg-vasopressin and a test compound (60 μg, 10^-8 to 10^-4 M) were incubated at 37° C. for 10 minutes in 250 μl (in total volume) of 100 mM Tris-HCl buffer (pH=8.0), containing 5 mM MgCl2, 1 mM EDTA and 0.1% BSA. After the incubation, the mixture was filtered three times by using a glass filter (GF/F) so as to separate the membrane preparation by combining with vasopressin and then washed with the buffer (5 ml). This glass filter was taken out and mixed with a liquid of scintillation cocktail. The amount of [^3 H]-vasopressin combining with the membrane was measured by liquid scintillation counter and the rate of inhibitory effect of the test compound was calculated according to the following equation: […]
C1 : the amount of [^3 H]-vasopressin combining with the membrane in the presence of the test compound of a known amount,
(§1) C0 : the amount of [^3 H]-vasopressin combining with the membrane in the absence of the test compound,
B1 : the amount of [^3 H]-vasopressin combining with the membrane in the presence of the excess amount of vasopressin (10^-6 M).
The results are expressed as IC50 value, which is the concentration of the test compound required to achieve the inhitory effect in the rate of 50% and are shown in the following Table 156.

[2] = molecular target: T2, V2 Recepter (rat kidney plasma membrane preparations) (Rattus norvegicus, UniProt Q00788); experiment: V2 Recepter binding assay; conditions: [3H]-Arg-vasopressin 4×10^-10 M, 4° C., pH 8.0, rat kidney plasma membrane
T2 construct: rat kidney plasma membrane preparations; from tissue; host or cells: rat kidney plasma membranes
Experimental: Test 2: V2 Recepter binding assay
By using rat kidney plasma membrane preparations prepared according to Hechter's method [by O. Hechter: J. Bio. Chem., 2.53, 3211 (1978)], the plasma membrane (100,000 dpm, 4×10^-10 M) of [^3 H]-Arg-vasopressin and a test compound (0.6 mg, 10^-10 to 10^-5 M) were incubated at 4° C. for 3 hours in 250 μl (in total volume) of 100 mM Tris-HCl buffer (pH=8.0), containing, 5 mM MgCl2, 1 mM EDTA and 0.1% BSA. After the incubation, the mixture, the mixture was filtered by using a glass filter (GF/F) so as to separate the membrane preparation combining with vasopressin, then washed twice with the buffer (5 ml). This glass filter was taken out and mixed with liquid scintillation cocktail. The amount of [^3 H]-vasopressin combining with the membrane was measured by a liquid scintillation counter and the rate of inhibitory effect of the test compound was calculated according to the following equation: Rate of the inhibitory
C1 : the amount of [^3 H]-vasopressin combining with the membrane in the presence of the testcompound of a known amount,
as §1
B1 : the amount of [^3 H]-vasopressin combining with the mebrane in the presence of the excess amount of vasopressin (10^-6 M).
The results are expressed as IC50 value, which is the concentration of the test compound required to achieve the inhibitory effect in the rate of 50%, and are shown in the following Table 157.

[3] = molecular target: T3, Oxytocin receptor (uterin muscle membrane preparation) (Rattus norvegicus, UniProt P70536); experiment: Oxytocin receptor binding assay; conditions: [3H]-oxytocin 10^-9 M, 25°, one hour, pH 8.0, uterin muscle membrane, DES-treated
T3 construct: was homogenized, which was used as a membrane; from tissue; host or cells: uterine muscle membranes from diethylstilbestrol-treated animals
T3 sequence (P70536 1-388): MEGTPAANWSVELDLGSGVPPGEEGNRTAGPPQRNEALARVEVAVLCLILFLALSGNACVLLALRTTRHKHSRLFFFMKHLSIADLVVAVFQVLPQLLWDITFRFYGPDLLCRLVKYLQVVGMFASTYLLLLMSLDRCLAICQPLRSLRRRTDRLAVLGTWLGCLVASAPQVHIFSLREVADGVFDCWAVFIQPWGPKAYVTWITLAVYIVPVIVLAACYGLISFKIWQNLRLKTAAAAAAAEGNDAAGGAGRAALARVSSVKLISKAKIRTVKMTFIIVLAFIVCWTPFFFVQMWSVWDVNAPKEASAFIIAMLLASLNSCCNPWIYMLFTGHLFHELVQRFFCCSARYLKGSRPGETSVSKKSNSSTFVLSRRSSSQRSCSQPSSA
Experimental: Test-5 Oxytocin receptor binding assay
In accordance with Chan's method [by W. Y. Chan, et al.: Endocrinology, 126, 2095-2101 (1990)], the uterin muscle benn injected subcutaneously with diethylstilbe-sterol (DES) the day before and was homogenized, which was used as a membrane prepara tion. The membrane preparation (0.2 mg), [^3 H]-oxytocin (100,000 dpm, 10^-9 M), a test compound (10^-9 to 10^-5 M) were incubated at 25°. for one hour in 100 mM Tris-HCl buffer (pH=8.0, 250 μl) containing 5 mM MgCl2, 1 mM EDTA and 0.1% BSA. The mixture was filtered through a glass filter (GF/F) so as to separate the membrane preparation combining with [^3 H]-oxytocin, then, was washed twicw with the buffer (5 ml). The glass filter was put into a vial and mixed with Aquasole (a liquid scintillation cocktail). The amount of [^3 H]-oxytocin combining w ith the membrane was measured by a liquid scintillation counter. The rate of the inhibitory effect of the test compound was calculated according to the equation as follows: […]
C1 : the amount of [^3 H]-oxytocin combining with the membrane in the presence of a test compound (in known amount),
C0 : the amount of [^3 H]-oxytocin combinig with the membrane in the absence of a test compound,
B: the amount of [^3 H]-oxytocin combining with the membrane in the presence of the excess amount of oxytocin (5×10^-6 M).
The results are expressed as IC50 values, which is the concentration of the test compound required to achieve the inhibitory effect in the rate of 50%.

T2 sequence (Q00788 whole entry): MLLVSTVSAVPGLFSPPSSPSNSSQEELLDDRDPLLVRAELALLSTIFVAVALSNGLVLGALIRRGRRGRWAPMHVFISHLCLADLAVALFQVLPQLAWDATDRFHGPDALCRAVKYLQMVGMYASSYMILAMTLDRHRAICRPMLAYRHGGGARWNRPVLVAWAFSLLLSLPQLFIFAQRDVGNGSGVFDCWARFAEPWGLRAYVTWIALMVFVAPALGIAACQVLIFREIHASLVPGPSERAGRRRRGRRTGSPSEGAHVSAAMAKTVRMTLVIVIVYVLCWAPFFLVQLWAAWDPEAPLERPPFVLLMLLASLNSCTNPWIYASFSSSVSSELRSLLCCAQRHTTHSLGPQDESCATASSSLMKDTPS
T1 sequence (P30560 whole entry): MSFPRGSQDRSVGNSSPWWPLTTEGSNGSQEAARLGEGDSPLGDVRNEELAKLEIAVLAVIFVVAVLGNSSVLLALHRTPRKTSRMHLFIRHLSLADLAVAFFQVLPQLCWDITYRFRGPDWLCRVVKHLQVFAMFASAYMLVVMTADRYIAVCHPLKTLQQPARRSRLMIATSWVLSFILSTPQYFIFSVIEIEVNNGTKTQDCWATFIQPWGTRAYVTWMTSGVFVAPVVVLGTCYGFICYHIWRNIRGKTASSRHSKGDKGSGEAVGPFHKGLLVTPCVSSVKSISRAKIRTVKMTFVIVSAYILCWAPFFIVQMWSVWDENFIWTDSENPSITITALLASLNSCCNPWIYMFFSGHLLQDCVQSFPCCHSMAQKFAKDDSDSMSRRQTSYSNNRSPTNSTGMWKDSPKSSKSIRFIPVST

Compound COc1cc(C(=O)N2CCCCc3cc(Cl)ccc32)ccc1NC(=O)c1ccccc1OCCCN1CCC(NC(C)=O)CC1 (single isomer, unassigned) [Example 72, 7-Chloro-1-[3-methoxy-4-{2-[3-(4-acetylamino-1-piperidinyl)propoxy]benzoylamino}benzoyl]-2,3,4,5-tetrahydro-1H-benzoazepine] has an IC50 [1] of 1.2 nM and an IC50 [2] of 74 nM.

In the case of COc1cc(NC(=O)c2ccccc2Cl)ccc1C(=O)N1CCCC(CC(=O)N2CCN(CCO)CC2)c2cc(Cl)ccc21 (single isomer, unassigned) [Example 85, 5-[4-(2-Hydroxyethyl)-1-piperazinyl]-carbonylmethyl-7-chloro-1-[2-methoxy-4-(2-chlorobenzoylamino)benzoyl]-2,3,4,5-tetrahydro-1H-benzoazepine], the IC50 [1] is reported as 16 nM, the IC50 [2] is reported as 8 nM and the IC50 [3] is reported as 94 nM.

C=CCOC1CCCN(C(=O)c2ccc(NC(=O)c3ccccc3C)cc2)c2ccc(Cl)cc21 (stereo not drawn) [Example 64, 5-Allyloxy-7-chloro-1-[4-(2-methylbenzoylamino)benzoyl]-2,3,4,5-tetrahydro-1H-benzoazepine] gave an IC50 [1] of 45 nM.

Compound COc1cc(C(=O)N2CCCCc3cc(Cl)ccc32)ccc1NC(=O)c1ccccc1OCCCn1cncn1 [Example 73, 7-Chloro-1-[3-methoxy-4-{2-[3-(1,2,4-triazol-1-yl)-propoxy]benzoylamino}benzoyl]-2,3,4,5-tetrahydro-1H-benzoazepine] has an IC50 [1] of 7 nM and an IC50 [2] of 80 nM.

COc1cc(NC(=O)c2ccccc2Cl)ccc1C(=O)N1CCCC(CC(=O)NCCN(C)C)c2cc(Cl)ccc21 (stereo not drawn) [Example 89, 5-(2-Dimethylaminoethylamino)carbonylmethyl-7-chloro-1-[2-methoxy-4-(2-chlorobenzoylamino)benzoyl]-2,3,4,5-tetrahydro-1H-benzoazepine.cndot.hydrochloride] showed an IC50 [1] of 9 nM and an IC50 [2] of 2.5 nM.

CCN(CC)CCN(C)C(=O)CC1CCCN(C(=O)c2ccc(NC(=O)c3ccccc3Br)c(OC)c2)c2ccc(Cl)cc21 (stereo not drawn) [Example 91, 5-[N-Methyl-N-(2-diethylaminoethyl)amino]-carbonylmethyl-7-chloro-1-[3-methoxy-4-(2-bromobenzoylamino)benzoyl]-2,3,4,5-tetrahydro-1H-benzoazepine] was tested, and the IC50 [1] was 2.6 nM and the IC50 [2] was 3.5 nM.

Cc1cc(NC(=O)c2ccccc2Cl)ccc1C(=O)N1CCCC(CCN2CCCC2)c2cc(Cl)ccc21 (stereo not drawn) [Example 97, 5-[2-(1-Pyrrolidinyl)ethyl]-7-chloro-1-[2-methyl-4-(2-chlorobenzoylamino)benzoyl]-2,3,4,5-tetrahydro-1H-benzoazepine.cndot.hydrochloride] showed an IC50 [2] of 7.2 nM and an IC50 [3] of 4070 nM.

In the case of Cc1cc(NC(=O)c2ccccc2Cl)ccc1C(=O)N1CCCC(CCn2ncnn2)c2cc(Cl)ccc21 (stereo not drawn) [Example 99], the IC50 [2] is reported as 12 nM and the IC50 [3] is reported as 2800 nM.

Work on C=CCN(C)CCC1CCCN(C(=O)c2ccc(NC(=O)c3ccccc3Cl)cc2C)c2ccc(Cl)cc21 (stereo not drawn) [Example 100] yielded an IC50 [2] of 4.7 nM and an IC50 [3] of 4040 nM.

Work on C=CCNCCC1CCCN(C(=O)c2ccc(NC(=O)c3ccccc3Cl)cc2C)c2ccc(F)cc21 (stereo not drawn) [Example 101, 5-(2-Allylaminoethyl)-7-fluoro-1-[2-methyl-4-(2-chlorobenzoylamino)benzoyl]-2,3,4,5-tetrahydro-1H-benzoazepine] yielded an IC50 [2] of 7 nM and an IC50 [3] of 5300 nM.

Compound Cc1cc(NC(=O)c2ccccc2Cl)ccc1C(=O)N1CCCC(CCNC2CC2)c2cc(Cl)ccc21 (stereo not drawn) [Example 102, 5-(2-Cyclopropylaminoethyl)-7-chloro-1-[2-methyl-4-(2-chlorobenzoylamino)benzoyl]-2,3,4,5-tetrahydro-1H-benzoazepine.cndot.hydrochloride] has an IC50 [2] of 7.1 nM and an IC50 [3] of 2900 nM.

Compound C#CCNCCC1CCCN(C(=O)c2ccc(NC(=O)c3ccccc3Cl)cc2C)c2ccc(Cl)cc21 (stereo not drawn) [Example 103, 5-(2-Propargylaminoethyl)-7-chloro-1-[2-methyl-4-(2-chlorobenzoylamino)benzoyl]-2,3,4,5-tetrahydro-1H-benzoazepine.cndot.hydrochloride] has an IC50 [2] of 8 nM and an IC50 [3] of 3000 nM.

CNC(=NC#N)NCCOC1CCCN(C(=O)c2ccc(NC(=O)c3ccccc3Cl)cc2OC)c2ccc(Cl)cc21 (stereo not drawn) [Example 149, 5-[2-(3-Methyl-2-cyanogianidino)ethoxy]-7-chloro-1-[2-methoxy-4-(2-chlorobenzoylamino)benzoyl]-2,3,4,5-tetrahydro-1H-benzoazepine] gave an IC50 [1] of 90 nM and an IC50 [2] of 45 nM.

COc1cc(NC(=O)c2ccccc2Cl)ccc1C(=O)N1CCCC(OCCNCC#N)c2cc(Cl)ccc21 (stereo not drawn) [Example 151] showed an IC50 [1] of 46 nM and an IC50 [2] of 8 nM.

For CC(C)NCCCCOc1ccccc1C(=O)Nc1ccc(C(=O)N2CCCC(CC(=O)N(C)C)c3cc(Cl)ccc32)cc1 (stereo not drawn) [Example 162, 5-Dimethylaminocarbonylmethyl-7-chloro-1-{4-[2-(4-isopropylaminobutoxy)benzoylamino]-benzoyl}-2,3,4,5-tetrahydro-1H-benzoazepine], the IC50 [1] was 9.2 nM and the IC50 [2] was 130 nM.

COc1cc(C(=O)N2CCCC(CC(=O)N(C)CCN(C)C)c3cc(Cl)ccc32)ccc1NC(=O)c1ccccc1Br (stereo not drawn) [Example 163, 5-[N-(2-Dimethylaminoethyl)-N-methylamino]-carbonylmethyl-7-chloro-1-[3-methoxy-4-(2-bromobenzoylamino)benzoyl]-2,3,4,5-tetrahydro-1H-benzoazepine] gave an IC50 [1] of 1.8 nM and an IC50 [2] of 8 nM.

CCN(CCN(C)C)C(=O)COC1CCCN(C(=O)c2ccc(NC(=O)c3ccccc3Br)c(OC)c2)c2ccc(Cl)cc21 (stereo not drawn) [Example 165, 5-[N-(2-Dimethylaminoethyl)-N-ethylamino]-carbonylmethoxy-7-chloro-[3-methoxy-4-(2-bromobenzoylamino)benzoyl]-2,3,4,5-tetrahydro-1H-benzoazepine] was tested, and the IC50 [1] was 3.6 nM and the IC50 [2] was 4.3 nM.

Compound COc1cc(C(=O)N2CCCC(OCC(=O)N3CCCN(C)CC3)c3cc(Cl)ccc32)ccc1NC(=O)c1ccccc1Br (stereo not drawn) [Example 166, 5-(4-Methyl-1-homopiperazinyl)carbonylmethoxy-7-chloro-1-[3-methoxy-4-(2-bromobenzoylamino)benzoyl]-2,3,4,5-tetrahydro-1H-benzoazepine] has an IC50 [1] of 4.8 nM and an IC50 [2] of 10 nM.
